Drawing on PubChem BioAssay (NCI), this text covers TGI for eleven compounds.

Some test systems named below: NCI-H522 lung; CCRF-CEM leukemia; MDA-MB-435; MDA-N; SN12C renal; MCF7 breast; EKVX NSCLC; MOLT-4 leukemia; DU-145 prostate; SNB-75 CNS; K-562 leukemia; A498 renal.
Assay in all cases: NCI tumour cell line growth inhibition, 48 h

SMILES strings stand for the structures.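 Method: 48-hour compound exposure of cells in 96-well plates, five concentrations, linear interpolation of endpoints. The concentration for full growth arrest is given as TGI.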

Consider `CC(NC(=O)NC(C)(C)C)NC(=O)C(N)CC(=O)O` (stereo not given), for which the TGI with NCI-H522 lung, in the test with CCRF-CEM leukemia, in the test with MDA-MB-435, in the test with MDA-N, in the test on SN12C renal and in the test with MCF7 breast was over 100 µM each time. For the same compound, the TGI with EKVX NSCLC, in the test with MOLT-4 leukemia, in the test on DU-145 prostate, in the test on SNB-75 CNS, in the test with K-562 leukemia and in the test with A498 renal was over 100 µM in each case.

With `O=S(=O)(Nc1nc2ccccc2nc1Nc1ccc2ccccc2c1)c1ccccc1`, the TGI was 39.6 µM with NCI-H522 lung; over 77.3 µM in the test with CCRF-CEM leukemia; over 100 µM in the test with MDA-MB-435; over 100 µM in the test on MDA-N; over 68.9 µM in the test on SN12C renal; over 100 µM with MCF7 breast. Besides, the TGI in the test on EKVX NSCLC is over 100 µM; in the test on MOLT-4 leukemia, 65.1 µM; in the test on DU-145 prostate it was over 100 µM; with SNB-75 CNS it was over 73.6 µM; with K-562 leukemia, over 100 µM; with A498 renal it was over 100 µM.

Consider `CCOC(=O)C1=C(O)C2C3CC4C2C(O)=C(C(=O)OCC)C2C1C3C42` (stereo not given), for which the TGI with NCI-H522 lung, in the test with CCRF-CEM leukemia, in the test on MDA-MB-435, in the test on MDA-N, in the test with SN12C renal and in the test on MCF7 breast was over 100 µM throughout. Moreover, the TGI with EKVX NSCLC, in the test with MOLT-4 leukemia, with DU-145 prostate, with SNB-75 CNS, with K-562 leukemia and with A498 renal was over 100 µM throughout.

As for `COC(CN(C(C)=O)C1CCC2(SCCS2)c2[nH]c3ccccc3c21)OC` (stereo not given), the TGI in the test with NCI-H522 lung, with CCRF-CEM leukemia, with MDA-MB-435, in the test with MDA-N, in the test on SN12C renal and in the test on MCF7 breast was over 100 µM each time. Moreover, the TGI in the test on EKVX NSCLC, with MOLT-4 leukemia, in the test with DU-145 prostate, with SNB-75 CNS, with K-562 leukemia and in the test on A498 renal was over 100 µM each time.

On to `CCOC(=O)c1c(N=P(c2ccccc2)(c2ccccc2)c2ccccc2)nnc(-c2ccccc2)c1-c1ccccc1`, for which the TGI with NCI-H522 lung, in the test on CCRF-CEM leukemia, in the test on MDA-MB-435, in the test on MDA-N, in the test on SN12C renal and with MCF7 breast was over 100 µM each time. In addition, the TGI was over 100 µM in the test with EKVX NSCLC; over 100 µM with MOLT-4 leukemia; over 100 µM in the test on DU-145 prostate; over 100 µM in the test with SNB-75 CNS; over 100 µM with K-562 leukemia; 99.3 µM in the test on A498 renal.

`O=C(O)CCS/C(=C\C(SCCC(=O)O)c1ccc(Cl)cc1)c1ccc(Cl)cc1` (stereo not given): the TGI with NCI-H522 lung was over 100 µM; in the test with CCRF-CEM leukemia it was over 100 µM; in the test with MDA-MB-435, over 100 µM; with MDA-N it was over 100 µM; with SN12C renal it was over 100 µM; in the test on MCF7 breast, 60.9 µM. Further, the TGI in the test with EKVX NSCLC was over 100 µM; with MOLT-4 leukemia, over 100 µM; in the test on DU-145 prostate, over 100 µM; with SNB-75 CNS it was over 100 µM; with K-562 leukemia, over 100 µM; in the test on A498 renal, 39 µM.

Consider `CSc1ccc(-c2cc(-c3nc4ccccc4[nH]3)no2)cc1`, for which the TGI is 69.5 µM with NCI-H522 lung; over 100 µM in the test with CCRF-CEM leukemia; 44.7 µM in the test with MDA-MB-435; over 100 µM with MDA-N; over 100 µM in the test on SN12C renal; 33.8 µM in the test on MCF7 breast. The TGI in the test on EKVX NSCLC is over 100 µM; in the test with MOLT-4 leukemia it was 37.2 µM; in the test with DU-145 prostate, over 100 µM; in the test on SNB-75 CNS it was over 100 µM; with K-562 leukemia, 84.4 µM; with A498 renal, over 100 µM.

With `Clc1ccc(C(c2ccccc2Cl)C(Cl)Cl)cc1` (stereo not given), the TGI in the test on NCI-H522 lung was found to be 34.3 µM; in the test on CCRF-CEM leukemia it was 47.1 µM; in the test on MDA-MB-435, 32 µM; in the test with MDA-N, 35.1 µM; in the test with SN12C renal it was 37 µM; in the test with MCF7 breast, 37.8 µM. Moreover, the TGI in the test on EKVX NSCLC was 32.6 µM; with MOLT-4 leukemia, 41.1 µM; in the test with DU-145 prostate it was 34.3 µM; with SNB-75 CNS, 35.1 µM; in the test with K-562 leukemia, 44.2 µM; with A498 renal, 38.6 µM.

Regarding `Cc1cc2/c(=C\c3ccc(N(C)C)cc3)c3ccccc3n2[n+]1C`, the TGI is 1.99 µM with NCI-H522 lung; over 100 µM with CCRF-CEM leukemia; 1.84 µM with MDA-MB-435; 1.58 µM in the test with MDA-N; 1.65 µM in the test on SN12C renal; 6.55 µM with MCF7 breast. The TGI in the test with EKVX NSCLC was 8.79 µM; with MOLT-4 leukemia it was 1.32 µM; with DU-145 prostate, 4.16 µM; in the test with SNB-75 CNS it was 2.26 µM; in the test on K-562 leukemia, 21.4 µM; in the test with A498 renal it was 9.33 µM.

`COc1c(/C=C/C(C)(C)O)cc(C2CC(=O)c3c(O)cc(O)cc3O2)cc1CC=C(C)C` (stereo not given): the TGI in the test with NCI-H522 lung was 18.6 µM; with CCRF-CEM leukemia, over 50 µM; in the test with MDA-MB-435, 15.3 µM; with MDA-N, 20.5 µM; in the test on SN12C renal, 14.3 µM; in the test with MCF7 breast, 15.3 µM. For the same compound, the TGI was 35 µM in the test with MOLT-4 leukemia; 17.4 µM with DU-145 prostate; 22.8 µM with SNB-75 CNS; 35.7 µM in the test on K-562 leukemia; 16.8 µM in the test with A498 renal.

In the case of `C=CCC1CC(n2cc(C)c(=O)[nH]c2=O)OC1CO[Si](C)(C)C(C)(C)C` (stereo not given), the TGI in the test with NCI-H522 lung stood at 23.1 µM; in the test with CCRF-CEM leukemia it was 29.9 µM; with MDA-MB-435, 28.2 µM; in the test on MDA-N, 27.4 µM; with SN12C renal it was 29.1 µM; with MCF7 breast, 29.1 µM. The TGI with EKVX NSCLC was determined as 19.8 µM; in the test on DU-145 prostate, 31.1 µM; in the test with SNB-75 CNS, 25.4 µM; in the test with K-562 leukemia it was 24.3 µM; with A498 renal it was 34.5 µM.
